Data as given in patent US7632531B2, “Alkyldienamides exhibiting taste and sensory effect in flavor compositions” (International Flavors & Fragnances Inc., priority 2003, dated 2009).

Columns and labels:
Type in all cases: in vivo
[1] = Flavor / organoleptic characteristics of the alkyldienamides; settings: for Primary characteristic / Secondary characteristic: flavor characteristics; for Taste and flavor characteristics: organoleptic properties
[2] = Toothpaste tasting in normal tooth brushing versus control paste; settings: 200 ppm compound added to mint control paste
Experimental: The following separate groups of ingredients were prepared:
2.0 parts by weight of sodium n-Lauroyl sarcosinate (foaming agent)
1.0 parts by weight of the flavor material which is a blend of peppermint oil, spearmint oil, anethole, and menthol.
• (1) The ingredients in Group “A” were stirred and heated in a steam jacketed kettle to 160° F. • (2) Stirring was continued for an additional 3 to 5 minutes to form a homogeneous gel. • (3) The powders of Group “B” were added to the gel, while mixing until a homogeneous paste is formed. • (4) With stirring, the flavor of Group “D” was added, followed by addition immediately thereafter of the foaming agent of Group “C”. • (5) The resultant slurry was then blended for one hour.
The completed paste was then transferred to a three-roller mill, homogenized and finally tubed. […] To this control paste 200 ppm of N-Isobutyl E2,Z6-dodecadienamide is added.

[3] = Non-alcoholic lemon lime beverage tasting versus control beverage; settings: 0.5 PPM compound plus 35 PPM lemon oil/lime oil flavor; versus control beverage with flavor only
Experimental: A non-alcoholic beverage formulation was prepared according to the following formulation: […]
The flavor applied to the beverages consisted of a blend of single fold lemon oil and distilled lime oil. The control beverage contained 35 PPM of this flavor. […] Another beverage was prepared containing 35 PPM of the same flavor and 0.5 PPM of N-Ethyl E2,Z6-nonadienamide.

[4] = Hard candy (cinnamon bark oil) tasting versus control candy; settings: 100 PPM compound in cinnamon bark oil candy
Experimental: The above ingredients were added to a stainless steel pot. With constant mixing the ingredients were brought to 295° F. The pot was removed from the heat and 0.5 grams of cinnamon bark oil was blended in. This liquid candy was then deposited into molds where it was left to cool. This recipe yielded 200 grams of finished candy. […] Another candy sample was prepared using the above recipe with the addition of 100 PPM of N-Methyl E2,Z6-nonadienamide.

[5] = Alcoholic peach beverage tasting versus control beverage; settings: 20 PPM compound plus 60 PPM peach flavor in 30° Proof alcoholic base
Experimental: Flavored beverages were prepared using the following 30° Proof alcoholic base:
The peach flavor applied to the beverages consisted of a blend of Gamma Decalactone, Benzaldehyde, Cis-3-hexenol, Butyric acid, 2-Methyl butyric acid, Iso butyl acetate, Linalool, and para-Mentha-8-thiol-3-one. The control beverage contained 60 PPM of the above flavor blend. […] Another beverage was prepared containing 60 PPM of the same flavor and 20 PPM of N-(3,4-methylenedioxy)benzyl E2,Z6-nonadienamide.

Row | Compound | Primary characteristic [1] | Secondary characteristic [1] | Taste and flavor characteristics [1] | also measured
1 | CCCCC/C=C\CC/C=C/C(=O)NCC [N-ethyl E2,Z6-dodecadienamide] | MSG like | Burning | – | –
2 | CCCCC/C=C\CC/C=C/C(=O)NCC(C)C [N-isobutyl E2,Z6-dodecadienamide] | Numbing | Tingle | – | Additional sensation of toothpaste (tingle, numbing) [2]: tingle on the tongue and a slight numbing on the lips; Flavor / cooling of toothpaste [2]: moderate cooling without the bitterness of the control sample
3 | CCCCC/C=C\CC/C=C/C(=O)NCC(C)CC (stereo not drawn) [N-(2-methylbutyl) E2,Z6-dodecadienamide] | Fruity | Salt like | Slightly fruity, tingle, salty. | –
4 | CC/C=C\CC/C=C/C(=O)NCC [N-ethyl E2,Z6-nonadienamide] | Umami | Enhancement | Umami character. | Taste effect in non-alcoholic beverage [3]: enhanced flavor impact, increased tartness, and an increased perception of freshness
5 | CC/C=C\CC/C=C/C(=O)NCC(C)C [N-isobutyl E2,Z6-nonadienamide] | – | MSG like | – | –
6 | CC/C=C\CC/C=C/C(=O)NCC(C)O (stereo not drawn) [N-(2-hydroxypropyl) E2,Z6-nonadienamide] | – | – | Cloying, fatty, cod liver oil, fishy. | –
7 | CC/C=C\CC/C=C/C(=O)NCC(C)CC (stereo not drawn) [N-(2-methylbutyl) E2,Z6-nonadienamide] | Bitter | Tingle | Metallic, bitter, tingle. | –
8 | CC/C=C\CC/C=C/C(=O)NC [N-methyl E2,Z6-nonadienamide] | Tingle | Numbing | Warming, tingle. | Taste effect in hard candy [4]: a greener flavor with less warmth, a slight numbing and a moderate level of tingle
9 | CC/C=C\CC/C=C/C(=O)NCc1ccc2c(c1)OCO2 [N-(3,4-methylenedioxy) benzyl E2,Z6-nonadienamide] | Numbing | Tingle | Numbing and tingle. | Taste effect in alcoholic beverage [5]: an enhanced perception of alcohol, increased flavor impact, and a tingle effect on the tongue
10 | CC/C=C\CC/C=C/C(=O)NC(C)C [N-isopropyl E2,Z6-nonadienamide] | Cucumber taste | Tingle | Oily, cucumber, some tingle, bitter. | –
11 | CC/C=C\CC/C=C/C(=O)NC1CC1 [N-cyclopropyl E2,Z6-nonadienamide] | Umami | Enhancement | – | –
12 | CCCCC/C=C\CC/C=C/C(=O)NC(C)C [N-isopropyl E2,Z6-dodecadienamide] | – | Tingle | Oily flavor, slight tingle. | –
